Where two headings read alike, the source gives them in different places.
What was measured:
Assay in all cases: stopped-flow CO2 hydration assay
Type in all cases: biochemical
hCA VII [1] = biological target: T1, hCA VII (Homo sapiens, UniProt P43166)
T1 construct: gene CA7; recombinant, obtained in-house as reported earlier; cytosolic isoform
From the text: stopped-flow CO2 hydration assay on hCA VII

hCA I = biological target: T2, hCA I (Homo sapiens, UniProt P00915)
T2 construct: gene CA1; recombinant, obtained in-house as reported earlier; cytosolic isoform
T2 sequence (P00915 2-261): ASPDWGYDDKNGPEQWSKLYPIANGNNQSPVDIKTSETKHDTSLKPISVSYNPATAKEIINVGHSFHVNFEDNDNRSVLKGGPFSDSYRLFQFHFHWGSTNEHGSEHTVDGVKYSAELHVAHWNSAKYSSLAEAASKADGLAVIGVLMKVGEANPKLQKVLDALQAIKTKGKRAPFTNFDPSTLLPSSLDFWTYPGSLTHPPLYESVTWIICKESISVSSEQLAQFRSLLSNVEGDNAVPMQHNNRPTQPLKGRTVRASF
From the text: stopped-flow CO2 hydration assay on hCA I

hCA II [2] = biological target: T3, hCA II (Homo sapiens, UniProt P00918)
T3 construct: gene CA2; recombinant, obtained in-house as reported earlier; cytosolic isoform
From the text: stopped-flow CO2 hydration assay on hCA II

hCA IV [3] = biological target: T4, hCA IV (Homo sapiens, UniProt P22748)
T4 construct: gene CA4; recombinant, obtained in-house as reported earlier
T4 sequence (P22748 19-284): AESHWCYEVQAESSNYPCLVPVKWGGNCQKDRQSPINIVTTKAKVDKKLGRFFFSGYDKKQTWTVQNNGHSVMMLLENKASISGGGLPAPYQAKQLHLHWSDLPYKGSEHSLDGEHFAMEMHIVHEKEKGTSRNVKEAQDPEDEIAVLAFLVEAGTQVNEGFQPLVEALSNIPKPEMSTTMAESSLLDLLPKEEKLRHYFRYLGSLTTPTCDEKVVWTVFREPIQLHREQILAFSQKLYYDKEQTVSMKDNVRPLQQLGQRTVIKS
From the text: stopped-flow CO2 hydration assay on hCA IV

hCA VII [4] = biological target: T1, hCA VII; settings: read-out: KI (nM)^a / hCA I
hCA II [5] = biological target: T3, hCA II; settings: read-out: KI (nM)^a / hCA I
hCA IV [6] = biological target: T4, hCA IV; settings: read-out: KI (nM)^a / hCA I

T1 sequence (P43166 whole entry, canonical isoform): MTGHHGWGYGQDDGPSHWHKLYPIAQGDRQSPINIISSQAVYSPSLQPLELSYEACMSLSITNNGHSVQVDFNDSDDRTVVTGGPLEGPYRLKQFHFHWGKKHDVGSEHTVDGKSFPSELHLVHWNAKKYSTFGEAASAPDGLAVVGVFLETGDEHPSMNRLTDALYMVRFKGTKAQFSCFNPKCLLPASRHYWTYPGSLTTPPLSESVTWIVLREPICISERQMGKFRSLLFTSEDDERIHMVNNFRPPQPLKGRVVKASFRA

SMILES	Ki (hCA VII [1]) [nM]	Ki (hCA I) [nM]	Ki (hCA II [2]) [nM]	Ki (hCA IV [3]) [nM]	Ki (hCA VII [4]) [nM]	Ki (hCA II [5]) [nM]	Ki (hCA IV [6]) [nM]
NS(=O)(=O)c1ccc2nc(Nc3nc4ccc(C(F)(F)F)cc4[nH]3)sc2c1 [7b, 2-((6-(Trifluoromethyl)-1H-benzo[d]imidazol-2-yl)amino)benzo[d]thiazole-6-sulphonamide]	452	8100	375	> 100000	–	–	–
NS(=O)(=O)c1ccc2nc(NC3=NCCN3)sc2c1 [6a, 2-((4,5-Dihydro-1H-imidazol-2-yl)amino)benzo[d]thiazole-6-sulphonamide]	56.3	422	37.6	> 100000	–	–	–
NS(=O)(=O)c1ccc2nc(Nc3nc4ccccc4[nH]3)sc2c1 [7a, 2-((1H-benzo[d]imidazol-2-yl)amino)benzo[d]thiazole-6-sulphonamide]	66.9	4930	84	> 100000	–	–	–
NS(=O)(=O)c1ccc2nc(NC3=NC4CCCCC4N3)sc2c1 (stereo not shown) [6c, 2-((3a,4,5,6,7,7a-hexahydro-1H-benzo[d]imidazol-2-yl)amino)benzo[d]thiazole-6-sulphonamide]	82.5	7590	65.6	> 100000	–	–	–
NS(=O)(=O)c1ccc2nc(Nc3nc4ccc(Cl)cc4[nH]3)sc2c1 [7c, 2-((6-Chloro-1H-benzo[d]imidazol-2-yl)amino)benzo[d]thiazole-6-sulphonamide]	694	9530	578	> 100000	–	–	–
CC1CN=C(Nc2nc3ccc(S(N)(=O)=O)cc3s2)N1 (stereo not shown) [6b, 2-((5-Methyl-4,5-dihydro-1H-imidazol-2-yl)amino)benzo[d]thiazole-6-sulphonamide]	37.4	568	48.1	> 100000	–	–	–

The remaining lines, values ahead:

Ki (hCA VII [1]) [nM]	Ki (hCA I) [nM]	Ki (hCA II [2]) [nM]	Ki (hCA IV [3]) [nM]	Ki (hCA VII [4]) [nM]	Ki (hCA II [5]) [nM]	Ki (hCA IV [6]) [nM]	SMILES
–	> 100000	–	–	> 100000	> 100000	> 100000	CC1CN=C(Nc2nc3ccc(S(=O)(=O)NC4=NCC(C)N4)cc3s2)N1 (stereo not shown) [9b]
–	> 100000	–	–	> 100000	> 100000	> 100000	O=S(=O)(NC1=NCCN1)c1ccc2nc(NC3=NCCN3)sc2c1 [9a, N-(4,5-Dihydro-1H-imidazol-2-yl)-2-((4,5-dihydro-1H-imidazol-2-yl)amino)benzo[d]thiazole-6-sulphonamide]
–	> 100000	–	–	> 100000	> 100000	> 100000	O=S(=O)(NC1=NC2CCCCC2N1)c1ccc2nc(NC3=NC4CCCCC4N3)sc2c1 (stereo not shown) [9c, N-(3a,4,5,6,7,7a-hexahydro-1H-benzo[d]imidazol-2-yl)-2-((3a,4,5,6,7,7a-hexahydro-1H-benzo[d]imidazol-2-yl)amino)benzo[d]thiazole-6-sulphonamide]
–	> 100000	–	–	> 100000	> 100000	> 100000	O=S(=O)(Nc1nc2ccccc2[nH]1)c1ccc2nc(Nc3nc4ccccc4[nH]3)sc2c1 [9d]

Reference: article PMC9930818, “2-((1H-Benzo[d]imidazol-2-yl)amino)benzo[d]thiazole-6-sulphonamides: a class of carbonic anhydrase II and VII-selective inhibitors” (Journal of Enzyme Inhibition and Medicinal Chemistry, 2023)
